Assay results as given in US20010039246A1, “Composition and method for early bloom thinning of fruit trees and controlling cracking of fruits” (priority 2000, published 2001).
Like-named read-outs stand apart in the source and are kept apart here.

Key:
[1] = test system: peach trees; conditions: cited from earlier work
[2] = test system: ‘Delicious’ apple; experiment: Lipids and surfactants for bloom thinning, fruit set and leaf bud damage (Example 4); assay type: in vivo; conditions: applied at 5% full bloom
[3] = test system: ‘Bing’ cherry trees; experiment: as above; assay type: in vivo; conditions: sprayed at 5% full bloom
From the text: (§1) […] Each treatment (plot) consisted of 4 trees, which received standard commercial management both before and after oil application.

[4] = test system: ‘Feng Huang’ peach; experiment: as above; assay type: in vivo; conditions: applied at 5% full bloom
From the text: as §1

[5] = test system: ‘Feng Huang’ peaches, ‘Delicious’ apples, and ‘Bing’ cherries; experiment: Lipids and surfactants for bloom thinning, all cultivars of Example 4; assay type: in vivo; conditions: for damage to leaf buds: surfactant alone at 0.6% or 1%; for thinning effect: surfactant alone at the application rate (0.2%, 0.6%, 1%), sprayed at 5% full bloom
From the text: Fruit trees of ‘Feng Huang’ peaches, ‘Delicious’ apples, and ‘Bing’ cherries all were sprayed at 5% full bloom. Each treatment (plot) consisted of 4 trees, which received standard commercial management both before and after oil application.

[6] = test system: ‘Gala’ apple trees; experiment: Thinning and phytotoxicity of lipid, copper and their mixture (Example 5); assay type: in vivo; conditions: for Russet / Leaf damage / Thinning: ‘Gala’ apples, aqueous cupric sulfate, sprayed at 5% FB; for Russet: fruit russet at harvest
Experimental: Emulsion was prepared with glyceride type of lipids as in Example 2 and diluted to 2% active ingredients. Cupric sulfate was added to the diluted emulsion to give mixtures containing 0, 50, 100, and 150 g metallic copper per 100 L, respectively. Aqueous solutions containing 0, 50, 100, and 150 g metallic copper per 100 L were also prepared seperately. Emulsion and copper mixtures or cupric sulfate solutions were sprayed on 12 year-old ‘Gala’ apple trees at 5% FB. Each treatment consisted of 4 trees (replications) in a row (oriented from south to north) and 2 shoots (one from the east and another from the west side of the canopy) were selected from each of the 4 trees for evaluation. Fruit set was measured 2 months after FB and leaf damage were evaluated 1, 2, and 3 weeks after application. Fruit russet was assessed at harvest and return of bloom was evaluated the following season.

| Compound | Fruit set ([2]; surfactant solution 0.2%) [%] | leaf bud damage ([2]; surfactant solution 0.2%) [%] | Fruit set ([2]; surfactant solution 0.6%) [%] | leaf bud damage ([2]; surfactant solution 0.6%) [%] | Fruit set ([2]; surfactant solution 1.0%) [%] | leaf bud damage ([2]; surfactant solution 1.0%) [%] | Fruit set ([3]; surfactant solution 0.2%) [%] | leaf bud damage ([3]; surfactant solution 0.2%) [%] | Fruit set ([3]; surfactant solution 0.6%) [%] | leaf bud damage ([3]; surfactant solution 0.6%) [%] | Fruit set ([3]; surfactant solution 1.0%) [%] | leaf bud damage ([3]; surfactant solution 1.0%) [%] | Fruit set ([4]; surfactant solution 0.2%) [%] | leaf bud damage ([4]; surfactant solution 0.2%) [%] | Fruit set ([4]; surfactant solution 0.6%) [%] | leaf bud damage ([4]; surfactant solution 0.6%) [%] | Fruit set ([4]; surfactant solution 1.0%) [%] | leaf bud damage ([4]; surfactant solution 1.0%) [%] | damage to leaf buds [5] | thinning effect [5] | further results |
| --- | --- | --- | --- | --- | --- | --- | --- | --- | --- | --- | --- | --- | --- | --- | --- | --- | --- | --- | --- | --- | --- |
| N,N-bis 2-[omega (hydroxypolyoxyethylene/polyoxypropylene)ethyl alkylamine] [Armothin] |  |  |  |  |  |  |  |  |  |  |  |  |  |  |  |  |  |  |  |  | thinning effect ([1]; 1%): not effective thinners |
| TRITON X-100 | 62 | 0 | 64 | 8 | 69 | 15 | 94 | 0 | 83 | 10 | 90 | 18 | 41 | 0 | 42 | 6 | 38 | 20 | caused some damage to leaf buds | not effective in thinning |  |
| TWEEN 60 | 58 | 0 | 65 | 7 | 61 | 13 | 96 | 0 | 92 | 8 | 87 | 17 | 46 | 0 | 42 | 5 | 38 | 18 | caused some damage to leaf buds | not effective in thinning |  |
| alkaryl polyoxyethylene alcohols |  |  |  |  |  |  |  |  |  |  |  |  |  |  |  |  |  |  |  |  | thinning effect ([1]; 2%): not effective thinners |
| O=S(=O)([O-])[O-].[Cu+2] [Cupric sulfate] |  |  |  |  |  |  |  |  |  |  |  |  |  |  |  |  |  |  |  |  | thinning and phytotoxicity ([6]; ‘Gala’ apple, 50, 100, 150 g metallic copper per 100 L): both thinning and phytotoxicity in a concentration dependent manner; Russet ([6]; 50 g metallic copper/100 L): 0%; Russet ([6]; 100 g metallic copper/100 L): 35%; Russet ([6]; 150 g metallic copper/100 L): 64%; Leaf damage ([6]; 50 g metallic copper/100 L): 0%; Thinning ([6]; 50 g metallic copper/100 L): 87%; Leaf damage ([6]; 100 g metallic copper/100 L): 9%; Thinning ([6]; 100 g metallic copper/100 L): 64%; Leaf damage ([6]; 150 g metallic copper/100 L): 24%; Thinning ([6]; 150 g metallic copper/100 L): 43% |
